According to patent publication US20180244611A1, “Modulators of the Cystic Fibrosis Transmembrane Conductance Regulator Protein and Methods of Use” (AbbVie S.à.r.l., priority 2017, published 2018):
pEC50: −log10 of the molar value.

How the values were obtained:
F508delCFTR [1] = biological target: T1, F508delCFTR (Homo sapiens, UniProt P13569, DEL508-508); test: Cell Surface Expression-Horse Radish Peroxidase (CSE-HRP) assay, test compound with co-corrector; format: cell-based; settings: for Maximum % activity (with co-corrector): maximum at any tested concentration;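 as to Maximum % activity (with co-corrector): percent of 2 µM positive control corrector over DMSO; co-corrector is that same compound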
T1 construct: expressed in transfected cells; host or cells: CFBE41o- human lung-derived epithelial cells (CFBE41o-F508delCFTR-HRP), doxycycline-inducible
Experimental: (§1) Cell Surface Expression-Horse Radish Peroxidase (CSE-HRP) Assay
(§2) A cellular assay for measuring the F508delCFTR cell surface expression after correction with test compounds either without or with a co-corrector (2 μM of 3-[(2R,4R)-4-({[1-(2,2-difluoro-1,3-benzodioxol-5-yl)cyclopropyl]carbonyl}amino)-7-methoxy-3,4-dihydro-2H-chromen-2-yl]benzoic acid), was developed in human lung derived epithelial cell line (CFBE41o-) (Veit G et al, (2012) Mol Biol Cell. 23(21): 4188-4202). The development was achieved by expressing the F508delCFTR mutation along with a horseradish peroxidase (HRP) in the fourth exofacial loop, and then measuring the HRP activity using luminescence readout from these cells, CFBE41o-F508delCFTR-HRP, that were incubated overnight with the test corrector compounds, either without or with the co-corrector. For this primary assay, the CFBE41o-F508delCFTR-HRP cells were plated in 384-well plates (Greiner Bio-one; Cat 781080) at 4,000 cells/well along with 0.5 μg/mL doxycycline to induce the F508delCFTR-HRP expression and further incubated at 37° C., 5% CO2 for 72 hours. The test compounds were then added either without or with a co-corrector at the required concentrations and further incubated for 18-24 hours at 33° C. The highest concentration tested was 20 μM with an 8-point concentration response curve using a 3-fold dilution in both the test compound without or with the co-corrector. Three replicate plates were run to determine one EC50. All plates contained negative controls (dimethyl sulfoxide, DMSO) and positive control (2 μM of 3-[(2R,4R)-4-({[1-(2,2-difluoro-1,3-benzodioxol-5-yl)cyclopropyl]carbonyl}amino)-7-methoxy-3,4-dihydro-2H-chromen-2-yl]benzoic acid) as well as on-plate concentration response of the positive control. Post incubation, the plates were washed 5× times with Dulbecco's phosphate buffered saline (DPBS), followed by the addition of the HRP substrate, luminol (50 μL), and measuring the HRP activity using luminescence readout on EnVision® Multilabel Plate Reader (Perkin Elmer; product number 2104-0010). The raw counts from the experiment were analyzed using Accelrys® Assay Explorer v3.3.
(§3) Z′ greater than 0.5 was used as passing quality control criteria for the plates.
(§4) 1−[3*SDPositive Control+3*SDNegative Control/Absolute (MeanPositive Control−MeanNegative Control)]
(§5) wherein “SD” is standard deviation.
(§6) The % activity measured at each of the 8 test concentrations of the test compound added either without or with a co-corrector (2 μM of 3-[(2R,4R)-4-({[1-(2,2-difluoro-1,3-benzodioxol-5-yl)cyclopropyl]carbonyl}amino)-7-methoxy-3,4-dihydro-2H-chromen-2-yl]benzoic acid) was normalized to the on-plate positive control using the following formulae:
activity (Test compound with co-corrector)=[(test compound with co-corrector response−DMSO response)/(positive control response−DMSO response)]*100
(§7) The maximum % activity achieved for the test compound either without or with a co-corrector at any tested concentration is presented in Table 1 along with the respective EC50's calculated using the following general sigmoidal curve with variable Hill slope equation (described as Model 42 in the Accelrys® Assay Explorer v3.3 software):
(§8) General sigmoidal curve with concentration, response, top, bottom, EC50 and Hill slope. This model describes a sigmoidal curve with an adjustable baseline, a. The equation can be used to fit curves where response is either increasing or decreasing with respect to the independent variable, “x”.
“x” is a concentration of drug under test. “y” is the response. “a” is the maximum response, and “d” is the minimum response “c” is the inflection point (EC50) for the curve. That is, “y” is halfway between the lower and upper asymptotes when x=c. “b” is the slope-factor or Hill coefficient. The sign of b is positive when the response increases with increasing dose and is negative when the response decreases with increasing dose (inhibition).

F508delCFTR [2] = biological target: T1, F508delCFTR; test: Cell Surface Expression-Horse Radish Peroxidase (CSE-HRP) assay, test compound without co-corrector; format: cell-based; settings: for Emax: maximum at any tested concentration, without co-corrector; for pEC50: test compound without co-corrector;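 as to Emax: percent of on-plate 2 µM positive control corrector response over DMSO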
Experimental: as §1, §2, §3, §4, §5, §6
% activity (Test compound without co-corrector)=[(test compound without co-corrector response−DMSO response)/(positive control response−DMSO response)]*100%
as §7, §8
“x” is a concentration of drug under test. “y” is the response. “a” is the maximum response, and “d” is the minimum response “c” is the inflection point (EC50) for the curve. That is, “y” is halfway between the lower and upper asymptotes when x=c. “b” is the slope-factor or Hill coefficient. The sign of b is positive when the response increases with increasing dose and is negative when the response decreases with increasing dose (inhibition). The data is presented with the qualifiers shown below: […]

[3] = normalized to positive control, with 2 μM co-corrector
[4] = CSE-HRP assay, test compound with 2 μM co-corrector
[5] = normalized to on-plate positive control, with 2 μM co-corrector
[6] = normalized to on-plate positive control

T1 sequence (P13569 with tags, fused parts or gaps DEL508-508): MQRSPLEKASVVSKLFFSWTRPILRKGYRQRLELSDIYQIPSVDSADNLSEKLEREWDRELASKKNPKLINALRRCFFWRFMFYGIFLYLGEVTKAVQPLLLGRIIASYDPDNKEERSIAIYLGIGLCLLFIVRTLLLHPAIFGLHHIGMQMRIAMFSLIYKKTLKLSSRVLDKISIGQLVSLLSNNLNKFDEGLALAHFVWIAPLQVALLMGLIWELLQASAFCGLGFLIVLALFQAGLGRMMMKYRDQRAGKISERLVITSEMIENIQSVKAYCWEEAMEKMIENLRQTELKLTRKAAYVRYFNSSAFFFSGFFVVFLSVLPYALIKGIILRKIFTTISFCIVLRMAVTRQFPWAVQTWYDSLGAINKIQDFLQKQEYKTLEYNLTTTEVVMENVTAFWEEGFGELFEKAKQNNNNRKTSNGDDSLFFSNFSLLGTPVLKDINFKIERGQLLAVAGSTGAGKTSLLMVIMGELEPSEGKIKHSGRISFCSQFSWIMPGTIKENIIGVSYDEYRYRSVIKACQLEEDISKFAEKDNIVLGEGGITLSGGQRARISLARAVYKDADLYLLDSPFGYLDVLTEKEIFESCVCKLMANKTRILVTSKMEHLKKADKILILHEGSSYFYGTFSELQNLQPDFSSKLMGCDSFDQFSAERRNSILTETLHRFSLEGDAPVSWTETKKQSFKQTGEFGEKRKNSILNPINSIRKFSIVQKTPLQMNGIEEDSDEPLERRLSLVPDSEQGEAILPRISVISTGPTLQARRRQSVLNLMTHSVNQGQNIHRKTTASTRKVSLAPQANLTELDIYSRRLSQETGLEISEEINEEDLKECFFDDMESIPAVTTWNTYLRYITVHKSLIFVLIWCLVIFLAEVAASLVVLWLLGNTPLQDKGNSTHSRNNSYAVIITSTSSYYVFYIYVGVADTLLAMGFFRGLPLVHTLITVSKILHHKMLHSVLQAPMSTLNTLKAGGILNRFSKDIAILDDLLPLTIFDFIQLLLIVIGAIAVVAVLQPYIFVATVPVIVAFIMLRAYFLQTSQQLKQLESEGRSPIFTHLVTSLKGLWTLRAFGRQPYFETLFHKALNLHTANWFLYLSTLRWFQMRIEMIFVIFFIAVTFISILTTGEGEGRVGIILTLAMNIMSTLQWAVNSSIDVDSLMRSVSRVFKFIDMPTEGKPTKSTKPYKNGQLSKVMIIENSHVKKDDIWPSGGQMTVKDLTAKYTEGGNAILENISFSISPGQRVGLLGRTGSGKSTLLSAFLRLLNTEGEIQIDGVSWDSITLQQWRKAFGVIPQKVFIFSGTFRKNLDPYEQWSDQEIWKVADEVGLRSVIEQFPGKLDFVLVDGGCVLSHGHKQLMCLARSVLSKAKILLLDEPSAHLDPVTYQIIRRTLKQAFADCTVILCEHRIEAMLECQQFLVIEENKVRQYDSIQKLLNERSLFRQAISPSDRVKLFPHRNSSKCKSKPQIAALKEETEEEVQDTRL

Row | Compound | Maximum % activity (with co-corrector) (F508delCFTR [1]; [3]) | pEC50 (F508delCFTR [1]; with 2 μM co-corrector) | Emax (F508delCFTR [2]; normalized to positive control) | pEC50 (F508delCFTR [2]) | pEC50 (F508delCFTR [1]; [4]) | Maximum % activity (with co-corrector) (F508delCFTR [1]; [5]) | pEC50 (F508delCFTR [2]; CSE-HRP assay) | Emax (F508delCFTR [2]; [6])
1 | CCC1(C(=O)NS(=O)(=O)c2cccc(Br)c2C)CCc2c(Cl)cccc21 (centres unmarked) [II-100] | +++ (≥350) | 5.00 to 5.52 | 50 to 150% | 5.00 to 5.52 |  |  |  | 
2 | COc1cccc2c1CCC2C(=O)NS(=O)(=O)c1nc2c(=O)n(C)c(=O)n(C)c2n1Cc1ccccc1 (centres unmarked) [III-60] | + (<150) | ≤ 5.00 | < 50% | ≤ 5.00 |  |  |  | 
3 | COc1cccc2c1CCC2C(=O)NS(=O)(=O)c1ccccc1Br (centres unmarked) [II-39] | ++ (≥150 and <350) | 5.00 to 5.52 | < 50% | 5.00 to 5.52 |  |  |  | 
4 | COc1ccc(CC(C)C)c2c1CCCC2C(=O)NS(=O)(=O)c1cccc2ccccc12 (centres unmarked) [Example I-67, 5-methoxy-8-(2-methylpropyl)-N-(naphthalene-1-sulfonyl)-1,2,3,4-tetrahydronaphthalene-1-carboxamide] | +++ (≥350) | > 5.52 | ≥ 150% | > 5.52 |  |  |  | 
5 | COc1ccc(Br)c2c1C(C(=O)NS(=O)(=O)c1ccc(F)c3ncccc13)CC2 (centres unmarked) [II-117] | +++ (≥350) | > 5.52 | ≥ 150% | 5.00 to 5.52 |  |  |  | 
6 | COc1ccc(C)c2c1C(C(=O)NS(=O)(=O)c1cccc3ccccc13)CC2 (centres unmarked) [Example I-75, 7-methoxy-4-methyl-N-(naphthalene-1-sulfonyl)-2,3-dihydro-1H-indene-1-carboxamide] | +++ (≥350) | > 5.52 | ≥ 150% | > 5.52 |  |  |  | 
7 | CC(C)Oc1ccc(Br)c2c1CCCC2C(=O)NS(=O)(=O)c1cccc2ccccc12 (centres unmarked) [Example I-40, 8-bromo-N-(naphthalene-1-sulfonyl)-5-[(propan-2-yl)oxy]-1,2,3,4-tetrahydronaphthalene-1-carboxamide] | +++ (≥350) | > 5.52 | ≥ 150% | > 5.52 |  |  |  | 
8 | CC1(C(=O)NS(=O)(=O)c2cccc3ccccc23)CCc2c(Cl)cccc21 (centres unmarked) [Example I-38, 4-chloro-1-methyl-N-(naphthalene-1-sulfonyl)-2,3-dihydro-1H-indene-1-carboxamide] | +++ (≥350) | > 5.52 | ≥ 150% | 5.00 to 5.52 |  |  |  | 
9 | COc1ccc(N2CCCC2)c2c1C(C(=O)NS(=O)(=O)c1cccc3ccccc13)CCC2 (centres unmarked) [II-124] | +++ (≥350) | > 5.52 | ≥ 150% | > 5.52 |  |  |  | 
10 | COc1cccc2c1CCC2C(=O)NS(=O)(=O)c1cccnc1C#N (centres unmarked) [III-83] | + (<150) | ≤ 5.00 | < 50% | ≤ 5.00 |  |  |  | 
11 | Cc1ccccc1S(=O)(=O)NC(=O)C1CCc2c(Br)cccc21 (centres unmarked) [II-33] | +++ (≥350) | 5.00 to 5.52 | 50 to 150% | 5.00 to 5.52 |  |  |  | 
12 | COc1ccc(C2CCC2)c2c1[C@@H](C(=O)NS(=O)(=O)c1cccc3ncccc13)C2 (single isomer, unassigned) [Example I-147] | +++ (≥350) | > 5.52 | ≥ 150% | 5.00 to 5.52 |  |  |  | 
13 | COc1cccc2c1CCC2C(=O)NS(=O)(=O)c1c(C(=O)OC(C)(C)C)c(C)nn1C (centres unmarked) [III-68] | + (<150) | ≤ 5.00 | < 50% | ≤ 5.00 |  |  |  | 
14 | Cc1ccccc1S(=O)(=O)NC(=O)[C@@H]1CCCc2ccccc21 [II-17] | ++ (≥150 and <350) | 5.00 to 5.52 | < 50% | 5.00 to 5.52 |  |  |  | 
15 | COc1ccc(-c2ccncc2)c2c1C(C(=O)NS(=O)(=O)c1cccc3ccccc13)CCC2 (centres unmarked) [III-166] |  |  |  |  | > 5.52 | ++ (≥150 and <350) | > 5.52 | 50 to 150%
16 | COc1cccc2c1CCC2C(=O)NS(=O)(=O)c1ccc(S(C)(=O)=O)cc1 (centres unmarked) [III-26] | + (<150) | ≤ 5.00 | < 50% | ≤ 5.00 |  |  |  | 
17 | COc1cccc2c1CC(C(=O)NS(=O)(=O)c1ccccc1C)C2 (centres unmarked) [II-16] | ++ (≥150 and <350) | 5.00 to 5.52 | < 50% | 5.00 to 5.52 |  |  |  | 
18 | COC(=O)c1ccc(OC)c2c1CCC2C(=O)NS(=O)(=O)c1cccc2ccccc12 (centres unmarked) [II-134] | +++ (≥350) | > 5.52 | ≥ 150% | 5.00 to 5.52 |  |  |  | 
19 | O=C(NS(=O)(=O)c1cccc2ccccc12)C1CCCc2c(OC3CCOCC3)ccc(Br)c21 (centres unmarked) [II-92] | ++ (≥150 and <350) | > 5.52 | < 50% | 5.00 to 5.52 |  |  |  | 
20 | CCC1(C(=O)NS(=O)(=O)c2ccccc2OCCN2CCCCC2)CCc2c(Cl)cccc21 (centres unmarked) [III-138] |  |  |  |  | 5.00 to 5.52 | ++ (≥150 and <350) | 5.00 to 5.52 | < 50%
21 | CCC1(C(=O)NS(=O)(=O)c2ccc3ncccc3c2)CCc2c(Cl)cccc21 (centres unmarked) [III-133] |  |  |  |  | 5.00 to 5.52 | ++ (≥150 and <350) | ≤ 5.00 | < 50%
22 | CCC1(C(=O)NS(=O)(=O)c2cccc(Cl)c2COC)CCc2c(Cl)cccc21 (centres unmarked) [II-57] | ++ (≥150 and <350) | > 5.52 | < 50% | > 5.52 |  |  |  | 
23 | CCC1(C(=O)NS(=O)(=O)Cc2ccccc2)CCc2c(Cl)cccc21 (centres unmarked) [III-140] |  |  |  |  | ≤ 5.00 | + (<150) | ≤ 5.00 | < 50%
